Assay results taken from patent publication USRE47493E1, “Substituted bicyclic dihydropyrimidinones and their use as inhibitors of neutrophil elastase activity” (Boehringer Ingelheim International GmbH, priority 2014, dated 2019).
Read-outs that look alike come from different tables or passages of the source.

Molecular target: Human neutrophil elastase (Homo sapiens (Human), UniProt P08246)
Assay: Human Neutrophil Elastase Assay
Assay type: biochemical
Procedure: Human Neutrophil Elastase Assay
Materials: Human neutrophil elastase was purchased from Calbiochem (Cat.No.: 324681) and the elastase substrate MeOSuc-Ala-Ala-Pro-Val-AMC from Bachem (Cat.No.: I-1270). All other materials were of the highest grade commercially available.
The following buffers were used: Compound buffer: 100 mM Tris, 500 mM NaCl, adjusted to pH 7.5; Assay buffer: 100 mM Tris, 500 mM NaCl, adjusted to pH 7.5, containing 0.01% BSA.
Assay conditions: Test compounds were prediluted in DMSO and subsequently in compound buffer (5% DMSO final). 5 μL of these compound dilutions were mixed with 10 μl Neutrophil elastase (9 ng/ml in assay buffer) in a black 384 well OptiPlate (Perkin Elmer, Cat No.: 6007270) and incubated for 15 min at room temperature. Subsequently 10 μL substrate solution in assay buffer were added (250 nM final concentration) and the plates were incubated for 60 min at room temperature. After inactivation of the enzyme, fluorescence intensities were measured at 380 nm excitation and 460 nm emission wavelengths.
Each plate contains wells with a high value control (DMSO+enzyme+substrate) and wells with a low value control (DMSO+inactivated enzyme+substrate). IC50 values were estimated using a sigmoidal concentration response curve with variable slope. Means of low values were taken as 0%, means of high values as 100%.

[1] = human neutrophil elastase, substrate MeOSuc-Ala-Ala-Pro-Val-AMC, pH 7.5, read-out: IC50

Chain of Human neutrophil elastase (P08246 30-267): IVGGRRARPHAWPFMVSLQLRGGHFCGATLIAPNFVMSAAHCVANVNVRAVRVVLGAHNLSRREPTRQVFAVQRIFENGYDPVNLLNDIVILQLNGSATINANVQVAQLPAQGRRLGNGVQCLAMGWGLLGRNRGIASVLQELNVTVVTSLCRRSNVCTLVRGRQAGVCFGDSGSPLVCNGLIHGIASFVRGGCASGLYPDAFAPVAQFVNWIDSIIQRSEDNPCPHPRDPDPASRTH

| SMILES | IC50 [1] [nM] | IC50 (read-out: IC50, inhibition of neutrophil elastase) [nM] |
| --- | --- | --- |
| N#Cc1ccc(C2NC(=O)N(c3cccc(C(F)(F)F)c3)C3=C2C(=O)CCC3)cc1 (racemic) [Example 1, 4-(2,5-Dioxo-1-(3-(trifluoromethyl)phenyl)-1,2,3,4,5,6,7,8-octahydroquinazolin-4-yl)-benzonitrile] | 28.5 |  |
| CS(=O)(=O)c1cc(C#N)ccc1C1NC(=O)N(c2cccc(C(F)(F)F)c2)C2=C1C(=O)CCC2 (racemic) [Example 18, 4-(2,5-Dioxo-1-(3-(trifluoromethyl)phenyl)-1,2,3,4,5,6,7,8-octahydroquinazolin-4-yl)-3-(methylsulfonyl)benzonitrile] | 8.5 |  |
| CS(=O)(=O)c1cc(C#N)ccc1C1NC(=O)N(c2cccc(C(F)F)c2)C2=C1C(=O)CCC2 (racemic) [Example 19, 4-(1-(3-(Difluoromethyl)phenyl)-2,5-dioxo-1,2,3,4,5,6,7,8-octahydroquinazolin-4-yl)-3-(methylsulfonyl)benzonitrile] | 10.7 |  |
| CN1C(=O)N(c2cccc(C(F)(F)F)c2)C2=C(C(=O)CCC2)C1c1ccc(C#N)cc1 (racemic) [Example 20, 4-(1-(3-(Trifluoromethyl)phenyl)-3-methyl-2,5-dioxo-1,2,3,4,5,6,7,8-octahydroquinazolin-4-yl)benzonitrile] | 7.3 |  |
| COC(=O)CN1C(=O)N(c2cccc(C(F)(F)F)c2)C2=C(C(=O)CCC2)C1c1ccc(C#N)cc1 (racemic) [Example 31, Methyl 2-(4-(4-Cyanophenyl)-2,5-dioxo-1-(3-(trifluoromethyl)phenyl)-1,2,5,6,7,8-hexahydroquinazolin-3(4H)-yl)acetate] | 18.4 |  |
| CCS(=O)(=O)c1cc(C#N)ccc1[C@@H]1NC(=O)N(c2cccc(C(F)(F)F)c2)C2=C1C(=O)CCC2 (single isomer, unassigned) [Example 54B] | 1870 |  |
| N#Cc1ccc([C@H]2NC(=O)N(c3cccc(C(F)(F)F)c3)C3=C2C(=O)CCC3)cc1 [Example 1A, (R)-4-(2,5-Dioxo-1-(3-(trifluoromethyl)phenyl)-1,2,3,4,5,6,7,8-octahydroquinazolin-4-yl)benzonitrile] | 9.5 |  |
| N#Cc1ccc([C@@H]2NC(=O)N(c3cccc(C(F)(F)F)c3)C3=C2C(=O)CCC3)cc1 [Example 1B, (S)-4-(2,5-Dioxo-1-(3-(trifluoromethyl)phenyl)-1,2,3,4,5,6,7,8-octahydroquinazolin-4-yl)benzonitrile] | 6560 |  |
| CS(=O)(=O)c1cc(C#N)ccc1[C@@H]1NC(=O)N(c2cccc(C(F)(F)F)c2)C2=C1C(=O)CCC2 [Example 18B, (R)-4-(2,5-Dioxo-1-(3-(trifluoromethyl)phenyl)-1,2,3,4,5,6,7,8-octahydroquinazolin-4-yl)-3-(methylsulfonyl)benzonitrile] | 2510 | 2510 |
| CS(=O)(=O)c1cc(C#N)ccc1[C@@H]1NC(=O)N(c2cccc(C(F)F)c2)C2=C1C(=O)CCC2 [Example 19B, (R)-4-(1-(3-(Difluoromethyl)phenyl)-2,5-dioxo-1,2,3,4,5,6,7,8-octahydroquinazolin-4-yl)-3-(methylsulfonyl)benzonitrile] | 1660 |  |
| CN1C(=O)N(c2cccc(C(F)(F)F)c2)C2=C(C(=O)CCC2)[C@H]1c1ccc(C#N)cc1 [Example 20A, (R)-4-(1-(3-(Trifluoromethyl)phenyl)-3-methyl-2,5-dioxo-1,2,3,4,5,6,7,8-octahydroquinazolin-4-yl)benzonitrile] | 2.2 |  |
| CN1C(=O)N(c2cccc(C(F)(F)F)c2)C2=C(C(=O)CCC2)[C@@H]1c1ccc(C#N)cc1 [Example 20B, (S)-4-(1-(3-(Trifluoromethyl)phenyl)-3-methyl-2,5-dioxo-1,2,3,4,5,6,7,8-octahydroquinazolin-4-yl)benzonitrile] | 1340 |  |
| COC(=O)CN1C(=O)N(c2cccc(C(F)(F)F)c2)C2=C(C(=O)CCC2)[C@H]1c1ccc(C#N)cc1 [Example 31A, (R)-Methyl 2-(4-(4-Cyanophenyl)-2,5-dioxo-1-(3-(trifluoromethyl)phenyl)-1,2,5,6,7,8-hexahydroquinazolin-3(4H)-yl)acetate] | 7.6 |  |
| COC(=O)CN1C(=O)N(c2cccc(C(F)(F)F)c2)C2=C(C(=O)CCC2)[C@@H]1c1ccc(C#N)cc1 [Example 31B, (S)-Methyl 2-(4-(4-Cyanophenyl)-2,5-dioxo-1-(3-(trifluoromethyl)phenyl)-1,2,5,6,7,8-hexahydroquinazolin-3(4H)-yl)acetate] | 7020 |  |
| CN(C)C(=O)CN1C(=O)N(c2cccc(C(F)(F)F)c2)C2=C(C(=O)CCC2)[C@H]1c1ccc(C#N)cc1 [Example 34A, (R)-2-(4-(4-Cyanophenyl)-2,5-dioxo-1-(3-(trifluoromethyl)phenyl)-1,2,5,6,7,8-hexahydroquinazolin-3(4H)-yl)-N,N-dimethylacetamide] | 1.5 |  |
| CN(C)C(=O)CN1C(=O)N(c2cccc(C(F)(F)F)c2)C2=C(C(=O)CCC2)[C@@H]1c1ccc(C#N)cc1 [Example 34B, (S)-2-(4-(4-Cyanophenyl)-2,5-dioxo-1-(3-(trifluoromethyl)phenyl)-1,2,5,6,7,8-hexahydroquinazolin-3(4H)-yl)-N,N-dimethylacetamide] | 570 |  |
| Cn1ncc2c1CN(C(=O)CN1C(=O)N(c3cccc(C(F)(F)F)c3)C3=C(C(=O)CCC3)[C@H]1c1ccc(C#N)cc1)C2 [Example 35A, (R)-4-(3-(2-(1-Methylpyrrolo[3,4-c]pyrazol-5(1H,4H,6H)-yl)-2-oxoethyl)-2,5-dioxo-1-(3-(trifluoromethyl)phenyl)-1,2,3,4,5,6,7,8-octahydroquinazolin-4-yl)benzonitrile] | < 1 |  |
| Cn1ncc2c1CN(C(=O)CN1C(=O)N(c3cccc(C(F)(F)F)c3)C3=C(C(=O)CCC3)[C@@H]1c1ccc(C#N)cc1)C2 [Example 35B, (S)-4-(3-(2-(1-Methylpyrrolo[3,4-c]pyrazol-5(1H,4H,6H)-yl)-2-oxoethyl)-2,5-dioxo-1-(3-(trifluoromethyl)phenyl)-1,2,3,4,5,6,7,8-octahydroquinazolin-4-yl)benzonitrile] | 26.8 |  |
| N#Cc1ccc(C2C3=C(CCCC3=O)N(c3cccc(C(F)(F)F)c3)C(=O)N2CC(=O)N2CCN3CCCC3C2)cc1 (stereo not shown) [Example 36.56] | 5 |  |
| CN1C[C@@H](NC(=O)CN2C(=O)N(c3cccc(C(F)(F)F)c3)C3=C(C(=O)CCC3)C2c2ccc(C#N)cc2)CCC1=O (stereo partly shown) [Example 36.61] | 12.7 |  |
| N#Cc1ccc(C2C3=C(CCCC3=O)N(c3cccc(C(F)(F)F)c3)C(=O)N2CC(=O)NCCN2CCNC2=O)cc1 (stereo not shown) [Example 36.62] | 8.2 |  |
| CNC(=O)N1C(=O)N(c2cccc(C(F)(F)F)c2)C2=C(C(=O)CCC2)[C@@H]1c1ccc(C#N)cc1S(C)(=O)=O [Example 47B, (R)-4-(4-Cyano-2-(methylsulfonyl)phenyl)-N-methyl-2,5-dioxo-1-(3-(trifluoromethyl)-phenyl)-1,2,5,6,7,8-hexahydroquinazoline-3(4H)-carboxamide] | 94 |  |

Next, values leading:

| IC50 [1] [nM] | IC50 (read-out: IC50, inhibition of neutrophil elastase) [nM] | SMILES |
| --- | --- | --- |
| 3.1 |  | CS(=O)(=O)c1cc(C#N)ccc1C1C2=C(CCCC2=O)N(c2cccc(C(F)(F)F)c2)C(=O)N1CC(F)F (stereo not shown) [Example 58.3] |
| 11.3 |  | COCCCN1C(=O)N(c2cccc(C(F)(F)F)c2)C2=C(C(=O)CCC2)C1c1ccc(C#N)cc1S(C)(=O)=O (stereo not shown) [Example 58.4] |
| < 1 |  | CS(=O)(=O)c1cc(C#N)ccc1C1C2=C(CCCC2=O)N(c2cccc(C(F)(F)F)c2)C(=O)N1CC(=O)N1CCC1 (stereo not shown) [Example 62.1] |
| < 1 |  | CS(=O)(=O)c1cc(C#N)ccc1C1C2=C(CCCC2=O)N(c2cccc(C(F)(F)F)c2)C(=O)N1CC(=O)N1CCCC1 (stereo not shown) [Example 62.2] |
| 1.3 |  | CN(CCO)C(=O)CN1C(=O)N(c2cccc(C(F)(F)F)c2)C2=C(C(=O)CCC2)C1c1ccc(C#N)cc1S(C)(=O)=O (stereo not shown) [Example 62.3] |
| < 1 |  | CS(=O)(=O)c1cc(C#N)ccc1C1C2=C(CCCC2=O)N(c2cccc(C(F)(F)F)c2)C(=O)N1CC(=O)N1CC2CC2C1 (stereo not shown) [Example 62.4] |
| < 1 |  | CS(=O)(=O)c1cc(C#N)ccc1C1C2=C(CCCC2=O)N(c2cccc(C(F)(F)F)c2)C(=O)N1CC(=O)N1CCC(F)C1 (stereo not shown) [Example 62.6] |
| < 1 |  | COCCN(C)C(=O)CN1C(=O)N(c2cccc(C(F)(F)F)c2)C2=C(C(=O)CCC2)C1c1ccc(C#N)cc1S(C)(=O)=O (stereo not shown) [Example 62.7] |
| 11.6 |  | COC1CCN(C(=O)CN2C(=O)N(c3cccc(C(F)(F)F)c3)C3=C(C(=O)CCC3)C2c2ccc(C#N)cc2S(C)(=O)=O)CC1 (stereo not shown) [Example 62.8] |
| 1.4 |  | CN(Cc1cnn(C)c1)C(=O)CN1C(=O)N(c2cccc(C(F)(F)F)c2)C2=C(C(=O)CCC2)C1c1ccc(C#N)cc1S(C)(=O)=O (stereo not shown) [Example 62.9] |
| < 1 |  | N#Cc1ccc(C2C3=C(CCCC3=O)N(c3cccc(C(F)(F)F)c3)C(=O)N2C(=O)N[C@H]2CCC[C@@H]2O)cc1 (stereo partly shown) [Example 70.11] |
| 1.1 |  | N#Cc1ccc(C2C3=C(CCCC3=O)N(c3cccc(C(F)(F)F)c3)C(=O)N2C(=O)N[C@H]2CCCC[C@@H]2O)cc1 (stereo partly shown) [Example 70.17] |
| < 1 |  | CC(C)(CO)NC(=O)N1C(=O)N(c2cccc(C(F)(F)F)c2)C2=C(C(=O)CCC2)[C@H]1c1ccc(C#N)cc1S(C)(=O)=O [Example 75.13] |
| < 1 |  | CC(C)(O)CCNC(=O)N1C(=O)N(c2cccc(C(F)(F)F)c2)C2=C(C(=O)CCC2)[C@H]1c1ccc(C#N)cc1S(C)(=O)=O [Example 75.19] |
